Assay results taken from patent US8846719B2, “Isoxazolo-pyridine derivatives” (Roche Palo Alto LLC, priority 2007, dated 2014).

Molecular target: human GABA A receptor α5β3γ2 (Homo sapiens (Human), UniProt P18507+P31644)
Experiment: [3H]flumazenil competition binding assay, human GABA A α5β3γ2 receptors expressed in HEK293 cells
Details: human receptor; displacement of [3H]flumazenil (0.5 nM); means of two determinations; read-out: hKi GABAAa5
Summary of the method: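 Competition for [3H]flumazenil binding on membranes of HEK293 cells transiently transfected with human α5β3γ2 receptors, in Krebs-tris buffer pH 7.5.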

Structure (SMILES)	Ki
Cc1onc(-c2ccc(Cl)cn2)c1COc1ccc(C(=O)O)cn1 [Example 304, 6-[3-(5-Chloro-pyridin-2-yl)-5-methyl-isoxazol-4-ylmethoxy]-nicotinic acid]	0.0038 µM
Cc1onc(-c2ccc(Cl)cn2)c1COc1ccc(C(=O)NC(C)(C)CO)cn1 [Example 305, 6-[3-(5-Chloro-pyridin-2-yl)-5-methyl-isoxazol-4-ylmethoxy]-(2-hydroxy-1,1-dimethyl-ethyl)-nicotinamide]	0.0006 µM
Cc1onc(-c2ccc(Cl)cn2)c1COc1ccc(C(=O)NCC2CC2)cn1 [Example 306, 6-[3-(5-Chloro-pyridin-2-yl)-5-methyl-isoxazol-4-ylmethoxy]-cyclopropylmethyl-nicotinamide]	0.0003 µM
Cc1onc(-c2ccc(Cl)cn2)c1COc1ccc(C(=O)N2CCS(=O)(=O)CC2)cn1 [Example 307, {6-[3-(5-Chloro-pyridin-2-yl)-5-methyl-isoxazol-4-ylmethoxy]-pyridin-3-yl}-(1,1-dioxo-1,6-thiomorpholin-4-yl)-methanone]	0.0006 µM
Cc1onc(-c2ccc(Cl)cn2)c1COc1ccc(C(=O)NCC(F)(F)F)cn1 [Example 308, 6-[3-(5-Chloro-pyridin-2-yl)-5-methyl-isoxazol-4-ylmethoxy]-(2,2,2-trifluoro-ethyl)-nicotinamide]	0.0002 µM
Cc1onc(-c2ccc(Cl)cn2)c1COc1ccc(C(=O)N2CCOCC2)cn1 [Example 309, {6-[3-(5-Chloro-pyridin-2-yl)-5-methyl-isoxazol-4-ylmethoxy]-pyridin-3-yl}-morpholin-4-yl-methanone]	0.0006 µM
Cc1onc(-c2ccc(Cl)cn2)c1COc1ccc(C(=O)NCCO)cn1 [Example 311, 6-[3-(5-Chloro-pyridin-2-yl)-5-methyl-isoxazol-4-ylmethoxy]-(2-hydroxy-ethyl)-nicotinamide]	0.0001 µM
COC(=O)c1ccc(OCc2c(-c3ccncn3)noc2C)nc1 [Example 312, 6-(5-Methyl-3-pyrimidin-4-yl-isoxazol-4-ylmethoxy)-nicotinic acid methyl ester]	0.0113 µM
Cc1onc(-c2ccncn2)c1COc1ccc(C(=O)NC(C)C)cn1 [Example 313, N-Isopropyl-6-(5-methyl-3-pyrimidin-4-yl-isoxazol-4-ylmethoxy)-nicotinamide]	0.003 µM
Cc1onc(-c2ccncn2)c1COc1ccc(C(=O)NC2CC2)cn1 [Example 314, N-Cyclopropyl-6-(5-methyl-3-pyrimidin-4-yl-isoxazol-4-ylmethoxy)-nicotinamide]	0.0056 µM
Cc1onc(-c2ccncn2)c1COc1ccc(C(=O)NC(C)(C)CO)cn1 [Example 315, N-(2-Hydroxy-1,1-dimethyl-ethyl)-6-(5-methyl-3-pyrimidin-4-yl-isoxazol-4-ylmethoxy)-nicotinamide]	0.0081 µM
Cc1onc(-c2ccncn2)c1COc1ccc(C(=O)N2CCOCC2)cn1 [Example 316, [6-(5-Methyl-3-pyrimidin-4-yl-isoxazol-4-ylmethoxy)-pyridin-3-yl]-morpholin-4-yl-methanone]	0.0362 µM
CCNC(=O)c1ccc(OCc2c(-c3ccncn3)noc2C)nc1 [Example 317, N-Ethyl-6-(5-methyl-3-pyrimidin-4-yl-isoxazol-4-ylmethoxy)-nicotinamide]	0.0031 µM
CNC(=O)c1ccc(OCc2c(-c3ccncn3)noc2C)nc1 [Example 318, N-Methyl-6-(5-methyl-3-pyrimidin-4-yl-isoxazol-4-ylmethoxy)-nicotinamide]	0.0048 µM
Cc1onc(-c2ccncn2)c1COc1ccc(C(=O)N2CCSCC2)cn1 [Example 319, [6-(5-Methyl-3-pyrimidin-4-yl-isoxazol-4-ylmethoxy)-pyridin-3-yl]-thiomorpholin-4-yl-methanone]	0.0202 µM
Cc1onc(-c2ccncn2)c1COc1ccc(C(=O)NCCO)cn1 [Example 320, N-(2-Hydroxy-ethyl)-6-(5-methyl-3-pyrimidin-4-yl-isoxazol-4-ylmethoxy)-nicotinamide]	0.006 µM
CC(C)NC(=O)c1ccc(OCc2conc2-c2ccccc2)nc1 [Example 321, N-Isopropyl-6-(3-phenyl-isoxazol-4-ylmethoxy)-nicotinamide]	0.0214 µM
O=C(NC1CCOCC1)c1ccc(OCc2conc2-c2ccccc2)nc1 [Example 322, 6-(3-Phenyl-isoxazol-4-ylmethoxy)-N-(tetrahydro-pyran-4-yl)-nicotinamide]	0.0177 µM
CC(C)NC(=O)c1ccc(OCc2conc2-c2ccc(F)cc2)nc1 [Example 323, 6-[3-(4-Fluoro-phenyl)-isoxazol-4-ylmethoxy]-N-isopropyl-nicotinamide]	0.0073 µM
O=C(NC1CCOCC1)c1ccc(OCc2conc2-c2ccc(F)cc2)nc1 [Example 324, 6-[3-(4-Fluoro-phenyl)-isoxazol-4-ylmethoxy]-N-(tetrahydro-pyran-4-yl)-nicotinamide]	0.0106 µM
CC(CO)NC(=O)c1ccc(OCc2conc2-c2ccc(F)cc2)nc1 (stereo not drawn) [Example 325, 6-[3-(4-Fluoro-phenyl)-isoxazol-4-ylmethoxy]-N-(2-hydroxy-1-methyl-ethyl)-nicotinamide]	0.009 µM

Structure (SMILES)	Ki
C[C@H](CO)NC(=O)c1ccc(OCc2conc2-c2ccc(F)cc2)nc1 [Example 326, 6-[3-(4-Fluoro-phenyl)-isoxazol-4-ylmethoxy]-N—((R)-2-hydroxy-1-methyl-ethyl)-nicotinamide]	0.0277 µM
C[C@@H](CO)NC(=O)c1ccc(OCc2conc2-c2ccc(F)cc2)nc1 [Example 327, 6-[3-(4-Fluoro-phenyl)-isoxazol-4-ylmethoxy]-N—((S)-2-hydroxy-1-methyl-ethyl)-nicotinamide]	0.0139 µM
O=C(NCC1CC1)c1ccc(OCc2conc2-c2ccc(F)cc2)nc1 [Example 328, N-Cyclopropylmethyl-6-[3-(4-fluoro-phenyl)-isoxazol-4-ylmethoxy]-nicotinamide]	0.0174 µM
O=C(NC1CC1)c1ccc(OCc2conc2-c2ccc(F)cc2)nc1 [Example 329, N-Cyclopropyl-6-[3-(4-fluoro-phenyl)-isoxazol-4-ylmethoxy]-nicotinamide]	0.0129 µM
O=C(NCC(F)(F)F)c1ccc(OCc2conc2-c2ccc(F)cc2)nc1 [Example 330, 6-[3-(4-Fluoro-phenyl)-isoxazol-4-ylmethoxy]-N-(2,2,2-trifluoro-ethyl)-nicotinamide]	0.0151 µM
O=C(N[C@H]1CCC[C@@H]1O)c1ccc(OCc2conc2-c2ccc(F)cc2)nc1 [Example 331, 6-[3-(4-Fluoro-phenyl)-isoxazol-4-ylmethoxy]-N-((1S,2S)-2-hydroxy-cyclopentyl)-nicotinamide]	0.0178 µM
O=C(NCC(O)C(F)(F)F)c1ccc(OCc2conc2-c2ccc(F)cc2)nc1 (stereo not drawn) [Example 333, 6-[3-(4-Fluoro-phenyl)-isoxazol-4-ylmethoxy]-N-(3,3,3-trifluoro-2-hydroxy-propyl)-nicotinamide]	0.0131 µM
O=C(NC(CO)CO)c1ccc(OCc2conc2-c2ccc(F)cc2)nc1 [Example 334, 6-[3-(4-Fluoro-phenyl)-isoxazol-4-ylmethoxy]-N-(2-hydroxy-1-hydroxymethyl-ethyl)-nicotinamide]	0.0212 µM
CC(=O)NCCNC(=O)c1ccc(OCc2conc2-c2ccc(F)cc2)nc1 [Example 335, N-(2-Acetylamino-ethyl)-6-[3-(4-fluoro-phenyl)-isoxazol-4-ylmethoxy]-nicotinamide]	0.0376 µM
COCCNC(=O)c1ccc(OCc2conc2-c2ccc(F)cc2)nc1 [Example 336, 6-[3-(4-Fluoro-phenyl)-isoxazol-4-ylmethoxy]-N-(2-methoxy-ethyl)-nicotinamide]	0.0407 µM
C[C@@H](O)CNC(=O)c1ccc(OCc2conc2-c2ccc(F)cc2)nc1 [Example 337, 6-[3-(4-Fluoro-phenyl)-isoxazol-4-ylmethoxy]-N—((R)-2-hydroxy-propyl)-nicotinamide]	0.0095 µM
O=C(NCCO)c1ccc(OCc2conc2-c2ccc(F)cc2)nc1 [Example 338, 6-[3-(4-Fluoro-phenyl)-isoxazol-4-ylmethoxy]-N-(2-hydroxy-ethyl)-nicotinamide]	0.0233 µM
O=C(NCC1(O)CC1)c1ccc(OCc2conc2-c2ccc(F)cc2)nc1 [Example 339, 6-[3-(4-Fluoro-phenyl)-isoxazol-4-ylmethoxy]-N-(1-hydroxy-cyclopropylmethyl)-nicotinamide]	0.0231 µM
O=C(NC1CCS(=O)(=O)C1)c1ccc(OCc2conc2-c2ccc(F)cc2)nc1 (stereo not drawn) [Example 340, N-(1,1-Dioxo-tetrahydro-1,6-thiophen-3-yl)-6-[3-(4-fluoro-phenyl)-isoxazol-4-ylmethoxy]-nicotinamide]	0.0194 µM
O=C(NCC(F)(F)F)c1ccc(OCc2conc2-c2ccc(Cl)cc2)nc1 [Example 342, 6-[3-(4-Chloro-phenyl)-isoxazol-4-ylmethoxy]-N-(2,2,2-trifluoro-ethyl)-nicotinamide]	0.0151 µM
O=C(NC1CC1)c1ccc(OCc2conc2-c2ccc(Cl)cc2)nc1 [Example 343, 6-[3-(4-Chloro-phenyl)-isoxazol-4-ylmethoxy]-N-cyclopropyl-nicotinamide]	0.0124 µM
CC(C)NC(=O)c1ccc(OCc2conc2-c2ccc(Cl)cc2)nc1 [Example 344, 6-[3-(4-Chloro-phenyl)-isoxazol-4-ylmethoxy]-N-isopropyl-nicotinamide]	0.0056 µM
O=C(NC1CCOCC1)c1ccc(OCc2conc2-c2ccc(Cl)cc2)nc1 [Example 345, 6-[3-(4-Chloro-phenyl)-isoxazol-4-ylmethoxy]-N-(tetrahydro-pyran-4-yl)-nicotinamide]	0.0064 µM
O=C(NCCO)c1ccc(OCc2conc2-c2ccc(Cl)cc2)nc1 [Example 346, 6-[3-(4-Chloro-phenyl)-isoxazol-4-ylmethoxy]-N-(2-hydroxy-ethyl)-nicotinamide]	0.0109 µM
CC(O)CNC(=O)c1ccc(OCc2conc2-c2ccc(Cl)cc2)nc1 (stereo not drawn) [Example 347, 6-[3-(4-Chloro-phenyl)-isoxazol-4-ylmethoxy]-N-(2-hydroxy-propyl)-nicotinamide]	0.0071 µM
O=C(NCCCO)c1ccc(OCc2conc2-c2ccc(Cl)cc2)nc1 [Example 348, 6-[3-(4-Chloro-phenyl)-isoxazol-4-ylmethoxy]-N-(3-hydroxy-propyl)-nicotinamide]	0.0103 µM
